The target of data set [1] is T1, P. falciparum enolase (Pf enolase) (Plasmodium falciparum, UniProt Q8IJN7).
T1 construct: gene ENO; recombinant full-length Plasmodium enolase, expressed in E. coli, His-tag-thioredoxin removed by TEV protease
Briefly: ITC with purified enzyme (n = […], ΔG −[…] Kcal/mol, Kd not given); IC50 from enzyme inhibition assay. The data set is classed as biochemical.

Data set [2] concerns the molecule itself. Briefly: SEC; Superdex 200 16/60, 20 mM Tris-HCl pH 8.0, 200 mM NaCl; single symmetric peak of the purified recombinant protein. On the technique in general: SEC sorts molecules by how far they enter the pores of the column.

Data on 2 molecules can be found in paper PMC4768138, “Biliverdin targets enolase and eukaryotic initiation factor 2 (eIF2α) to reduce the growth of intraerythrocytic development of the malaria parasite Plasmodium falciparum” (Scientific Reports, 2016).

What is called IC50 is the concentration that inhibits the measured activity by half. A high value points to weaker potency. The term stoichiometry N denotes a count of units in the complex or per binding partner.

`C=CC1=C(C)/C(=C/C2=NC(=C\c3[nH]c(/C=C4\NC(=O)C(C)=C4C=C)c(C)c3CCC(=O)O)/C(CCC(=O)O)=C2C)NC1=O` [BV, biliverdin]: 27 ± 4 µM corresponded to half-maximal inhibition in data set [1] (IC50).

B1: Plasmodium falciparum enolase (enzyme, UniProt Q8IJN7 1-446, looked up)
chain: MAHVITRINAREILDSRGNPTVEVDLETNLGIFRAAVPSGASTGIYEALELRDNDKSRYLGKGVQKAIKNINEIIAPKLIGMNCTEQKKIDNLMVEELDGSKNEWGWSKSKLGANAILAISMAVCRAGAAANKVSLYKYLAQLAGKKSDQMVLPVPCLNVINGGSHAGNKLSFQEFMIVPVGAPSFKEALRYGAEVYHTLKSEIKKKYGIDATNVGDEGGFAPNILNANEALDLLVTAIKSAGYEGKVKIAMDVAASEFYNSENKTYDLDFKTPNNDKSLVKTGAQLVDLYIDLVKKYPIVSIEDPFDQDDWENYAKLTAAIGKDVQIVGDDLLVTNPTRITKALEKNACNALLLKVNQIGSITEAIEACLLSQKNNWGVMVSHRSGETEDVFIADLVVALRTGQIKTGAPCRSERNAKYNQLLRIEESLGNNAVFAGEKFRLQLN
notes: Enolase of Plasmodium falciparum, expressed from the P. falciparum enolase-pETTrx-1a plasmid; the abstract calls it recombinant full-length Plasmodium enolase; The His-tag-thioredoxin was removed by TEV protease; also called Pf enolase; P. falciparum enolase; source: E. coli Rosetta (DE3), purified (HisTrap, TEV digestion, second HisTrap, Superdex 200)
B1: the “stoichiometry N” value in data set [2] amounted to 2.
